Assay results from ChEMBL document CHEMBL4800723, “Data for DCP probe BI-1942” (2021).

How the values were obtained:
[1] = biological target: 5-hydroxytryptamine receptor 1D (Homo sapiens, UniProt P28221); assay: GPCRScan assay: inhibition of 5-HT1D; design: radioligand conc. used [nm] 1.0 – 2.0, parental cells HEKT
[2] = biological target: Kappa-type opioid receptor (Homo sapiens, UniProt P41145); assay: GPCRScan assay: inhibition of KOR; design: radioligand conc. used [nm] 0.6 – 1.2, parental cells stable HEK
[3] = biological target: 5-hydroxytryptamine receptor 2A (Homo sapiens) (UniProt P28223); assay: 5HT2AH_AGON Eurofins SafetyScreen44 (BI); settings: filed as agonist, Compound concentration 10.0 uM
[4] = biological target: Angiotensin-converting enzyme (Homo sapiens) (UniProt P12821); assay: ACE(HU) Eurofins SafetyScreen44 (BI); settings: Compound concentration 10.0 uM
[5] = biological target: Alpha-1A adrenergic receptor (Homo sapiens) (UniProt P35348); assay: ALPHA1AH_ANTAG Eurofins SafetyScreen44 (BI); settings: filed as antagonist, Compound concentration 10.0 uM
[6] = biological target: Androgen receptor (Homo sapiens) (UniProt P10275); assay: ANDROGEN/H Eurofins SafetyScreen44 (BI); settings: Compound concentration 10.0 uM
[7] = biological target: L-type calcium channel (dihydropyridine site), Cav1.2 alpha-1C (Rattus norvegicus, UniProt P22002); assay: CA+/DHPSI/R Eurofins SafetyScreen44 (BI); design: mode of action inhibitor; settings: rat brain, probe [3H](+)PN200-110, compound concentration 10 uM, read-out: % Ctrl
[8] = biological target: Caspase-2 (Homo sapiens) (UniProt P42575); assay: CASPASE-2(H) Eurofins SafetyScreen44 (BI); settings: Compound concentration 10.0 uM
[9] = biological target: Caspase-6 (Homo sapiens) (UniProt P55212); assay: CASPASE-6_CE Eurofins SafetyScreen44 (BI); settings: Compound concentration 10.0 uM
[10] = biological target: Cathepsin B (Homo sapiens) (UniProt P07858); assay: CATHEPSB(H) Eurofins SafetyScreen44 (BI); settings: Compound concentration 10.0 uM
[11] = biological target: Cathepsin G (Homo sapiens) (UniProt P08311); assay: CATHEPSG(H) Eurofins SafetyScreen44 (BI); settings: Compound concentration 10.0 uM
[12] = biological target: Cannabinoid receptor 2 (Homo sapiens) (UniProt P34972); assay: CB2/PERIPH/H Eurofins SafetyScreen44 (BI); settings: Compound concentration 10.0 uM
[13] = biological target: Cholecystokinin receptor type A (Homo sapiens) (UniProt P32238); assay: CCKA/H Eurofins SafetyScreen44 (BI); settings: Compound concentration 10.0 uM
[14] = biological target: D(1A) dopamine receptor (Homo sapiens) (UniProt P21728); assay: D1/H Eurofins SafetyScreen44 (BI); settings: filed as antagonist, Compound concentration 10.0 uM
[15] = biological target: D(2) dopamine receptor (Homo sapiens) (UniProt P14416); assay: D2SH_AGON Eurofins SafetyScreen44 (BI); settings: filed as agonist, Compound concentration 10.0 uM
[16] = biological target: Endothelin-1 receptor (Homo sapiens) (UniProt P25101); assay: ETA/H Eurofins SafetyScreen44 (BI); settings: Compound concentration 10.0 uM
[17] = organism: Rattus norvegicus; assay: K+/VOLT/RA Eurofins SafetyScreen44 (BI); settings: Compound concentration 10.0 uM
[18] = biological target: Tyrosine-protein kinase Lck (Homo sapiens) (UniProt P06239); assay: LCK_CE Eurofins SafetyScreen44 (BI); settings: Compound concentration 10.0 uM
[19] = biological target: Muscarinic acetylcholine receptor M2 (Homo sapiens) (UniProt P08172); assay: M2/H Eurofins SafetyScreen44 (BI); settings: filed as antagonist, Compound concentration 10.0 uM
[20] = biological target: Macrophage metalloelastase (Homo sapiens) (UniProt P39900); assay: MMP-12 Eurofins SafetyScreen44 (BI); settings: Compound concentration 10.0 uM
[21] = biological target: Collagenase 3 (Homo sapiens) (UniProt P45452); assay: MMP-13 (H) Eurofins SafetyScreen44 (BI); settings: Compound concentration 10.0 uM
[22] = biological target: 72 kDa type IV collagenase (Homo sapiens) (UniProt P08253); assay: MMP-2 (H) Eurofins SafetyScreen44 (BI); settings: Compound concentration 10.0 uM
[23] = biological target: Stromelysin-1 (Homo sapiens) (UniProt P08254); assay: MMP-3 (H) Eurofins SafetyScreen44 (BI); settings: Compound concentration 10.0 uM
[24] = biological target: Interstitial collagenase (Homo sapiens) (UniProt P03956); assay: MMP1 (H) Eurofins SafetyScreen44 (BI); settings: Compound concentration 10.0 uM
[25] = biological target: Matrix metalloproteinase-14 (Homo sapiens) (UniProt P50281); assay: MT1-MMP(H)(MMP-14) Eurofins SafetyScreen44 (BI); settings: Compound concentration 10.0 uM
[26] = biological target: Sodium-dependent noradrenaline transporter (Homo sapiens) (UniProt P23975); assay: NEUP/H Eurofins SafetyScreen44 (BI); settings: Compound concentration 10.0 uM
[27] = biological target: Proteinase-activated receptor 1 (Homo sapiens) (UniProt P25116); assay: PAR1(H)ANTAG Eurofins SafetyScreen44 (BI); settings: filed as antagonist, Compound concentration 10.0 uM
[28] = biological target: cGMP-inhibited 3',5'-cyclic phosphodiesterase 3A (Homo sapiens) (UniProt Q14432); assay: PDE3A Eurofins SafetyScreen44 (BI); settings: Compound concentration 10.0 uM
[29] = biological target: Sodium-dependent serotonin transporter (Homo sapiens) (UniProt P31645); assay: SLC6A4/H Eurofins SafetyScreen44 (BI); settings: filed as antagonist, Compound concentration 10.0 uM
[30] = biological target: Tryptase (Homo sapiens) (UniProt Q9BZJ3+Q15661+Q9NRR2); assay: TRYPTASE_H Eurofins SafetyScreen44 (BI); assay type: protein assay; settings: Compound concentration 10.0 uM
[31] = biological target: Vasopressin V1a receptor (Homo sapiens) (UniProt P37288); assay: V1A/HUM Eurofins SafetyScreen44 (BI); settings: Compound concentration 10.0 uM
[32] = biological target: 5-hydroxytryptamine receptor 2A (Homo sapiens) (UniProt P28223); settings: Compound concentration 10.0 uM
[33] = biological target: 5-hydroxytryptamine receptor 2C (Homo sapiens) (UniProt P28335); settings: Compound concentration 10.0 uM
[34] = biological target: 5-hydroxytryptamine receptor 3A (Homo sapiens) (UniProt P46098); settings: Compound concentration 10.0 uM
[35] = biological target: 5-hydroxytryptamine receptor 5A (Homo sapiens) (UniProt P47898); settings: Compound concentration 10.0 uM
[36] = biological target: D(2) dopamine receptor (Homo sapiens) (UniProt P14416); settings: Compound concentration 10.0 uM
[37] = biological target: D(3) dopamine receptor (Homo sapiens) (UniProt P35462); settings: Compound concentration 10.0 uM
[38] = biological target: Delta-type opioid receptor (Homo sapiens) (UniProt P41143); settings: Compound concentration 10.0 uM
[39] = biological target: Histamine H3 receptor (Homo sapiens) (UniProt Q9Y5N1); settings: Compound concentration 10.0 uM
[40] = biological target: Alpha-1A adrenergic receptor (Homo sapiens) (UniProt P35348); settings: Compound concentration 10.0 uM
[41] = biological target: Alpha-2A adrenergic receptor (Homo sapiens) (UniProt P08913); settings: Compound concentration 10.0 uM
[42] = biological target: Beta-1 adrenergic receptor (Homo sapiens) (UniProt P08588); settings: Compound concentration 10.0 uM
[43] = biological target: Beta-2 adrenergic receptor (Homo sapiens) (UniProt P07550); settings: Compound concentration 10.0 uM
[44] = biological target: Muscarinic acetylcholine receptor M2 (Homo sapiens) (UniProt P08172); settings: Compound concentration 10.0 uM
[45] = biological target: Sigma intracellular receptor 2 (Homo sapiens) (UniProt Q5BJF2); settings: Compound concentration 10.0 uM
[46] = biological target: Chymase (Homo sapiens) (UniProt P23946); settings: Compound concentration 10.0 uM
Chymase (Homo sapiens), sequence (P23946 whole entry): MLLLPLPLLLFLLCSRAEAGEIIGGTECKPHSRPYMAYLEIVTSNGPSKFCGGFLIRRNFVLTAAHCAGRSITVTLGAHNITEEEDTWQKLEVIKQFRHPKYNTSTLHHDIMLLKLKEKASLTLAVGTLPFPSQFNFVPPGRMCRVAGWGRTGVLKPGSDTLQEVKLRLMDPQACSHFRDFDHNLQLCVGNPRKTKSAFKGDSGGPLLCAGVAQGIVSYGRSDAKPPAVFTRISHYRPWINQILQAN

D(2) dopamine receptor (Homo sapiens), sequence (P14416 whole entry): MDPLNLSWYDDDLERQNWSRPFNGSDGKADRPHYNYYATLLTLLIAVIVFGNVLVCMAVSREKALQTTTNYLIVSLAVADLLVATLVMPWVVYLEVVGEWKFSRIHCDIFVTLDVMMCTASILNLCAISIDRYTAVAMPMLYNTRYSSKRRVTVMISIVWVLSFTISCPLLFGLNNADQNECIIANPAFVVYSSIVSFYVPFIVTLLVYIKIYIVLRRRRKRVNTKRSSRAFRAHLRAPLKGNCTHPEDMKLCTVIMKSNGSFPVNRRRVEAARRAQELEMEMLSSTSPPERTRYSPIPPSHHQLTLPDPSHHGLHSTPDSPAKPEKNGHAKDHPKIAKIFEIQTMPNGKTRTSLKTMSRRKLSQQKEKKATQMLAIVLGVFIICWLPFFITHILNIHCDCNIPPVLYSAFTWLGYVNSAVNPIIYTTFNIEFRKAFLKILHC
5-hydroxytryptamine receptor 2A (Homo sapiens), sequence (P28223 whole entry): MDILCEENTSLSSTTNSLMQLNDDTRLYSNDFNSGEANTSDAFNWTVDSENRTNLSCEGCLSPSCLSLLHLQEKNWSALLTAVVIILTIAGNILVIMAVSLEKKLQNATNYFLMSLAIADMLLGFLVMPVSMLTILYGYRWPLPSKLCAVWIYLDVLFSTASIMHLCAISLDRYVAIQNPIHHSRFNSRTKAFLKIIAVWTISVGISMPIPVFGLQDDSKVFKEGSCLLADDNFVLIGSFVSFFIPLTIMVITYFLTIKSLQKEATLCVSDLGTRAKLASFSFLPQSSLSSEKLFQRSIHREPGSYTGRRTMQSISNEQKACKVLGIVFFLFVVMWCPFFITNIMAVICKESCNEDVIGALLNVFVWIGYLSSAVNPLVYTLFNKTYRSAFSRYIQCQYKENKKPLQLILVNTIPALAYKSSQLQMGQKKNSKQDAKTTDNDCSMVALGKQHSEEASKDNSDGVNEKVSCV
Alpha-1A adrenergic receptor (Homo sapiens), sequence (P35348 whole entry): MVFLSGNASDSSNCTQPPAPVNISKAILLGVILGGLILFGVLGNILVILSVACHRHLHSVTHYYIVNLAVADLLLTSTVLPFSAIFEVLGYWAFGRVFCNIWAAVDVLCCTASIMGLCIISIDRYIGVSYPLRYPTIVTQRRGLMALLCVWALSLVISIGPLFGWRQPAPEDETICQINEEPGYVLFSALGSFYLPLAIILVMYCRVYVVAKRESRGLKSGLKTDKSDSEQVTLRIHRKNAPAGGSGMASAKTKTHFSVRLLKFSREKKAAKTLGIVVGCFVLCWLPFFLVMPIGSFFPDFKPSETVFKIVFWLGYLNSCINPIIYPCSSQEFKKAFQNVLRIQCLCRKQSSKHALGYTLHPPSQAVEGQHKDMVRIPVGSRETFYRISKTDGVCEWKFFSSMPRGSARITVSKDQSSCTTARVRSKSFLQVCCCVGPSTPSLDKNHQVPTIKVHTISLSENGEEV
Kappa-type opioid receptor, sequence (P41145 whole entry): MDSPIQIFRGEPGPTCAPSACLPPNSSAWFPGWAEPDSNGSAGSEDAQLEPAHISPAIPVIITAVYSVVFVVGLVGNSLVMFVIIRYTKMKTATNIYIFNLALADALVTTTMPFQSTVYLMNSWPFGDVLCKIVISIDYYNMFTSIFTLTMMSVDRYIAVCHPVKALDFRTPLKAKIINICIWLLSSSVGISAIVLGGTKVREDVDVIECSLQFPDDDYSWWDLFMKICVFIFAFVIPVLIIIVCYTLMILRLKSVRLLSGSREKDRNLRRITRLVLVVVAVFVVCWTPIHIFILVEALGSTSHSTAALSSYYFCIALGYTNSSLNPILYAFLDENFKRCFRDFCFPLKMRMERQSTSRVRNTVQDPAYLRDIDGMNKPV
Muscarinic acetylcholine receptor M2 (Homo sapiens), sequence (P08172 whole entry): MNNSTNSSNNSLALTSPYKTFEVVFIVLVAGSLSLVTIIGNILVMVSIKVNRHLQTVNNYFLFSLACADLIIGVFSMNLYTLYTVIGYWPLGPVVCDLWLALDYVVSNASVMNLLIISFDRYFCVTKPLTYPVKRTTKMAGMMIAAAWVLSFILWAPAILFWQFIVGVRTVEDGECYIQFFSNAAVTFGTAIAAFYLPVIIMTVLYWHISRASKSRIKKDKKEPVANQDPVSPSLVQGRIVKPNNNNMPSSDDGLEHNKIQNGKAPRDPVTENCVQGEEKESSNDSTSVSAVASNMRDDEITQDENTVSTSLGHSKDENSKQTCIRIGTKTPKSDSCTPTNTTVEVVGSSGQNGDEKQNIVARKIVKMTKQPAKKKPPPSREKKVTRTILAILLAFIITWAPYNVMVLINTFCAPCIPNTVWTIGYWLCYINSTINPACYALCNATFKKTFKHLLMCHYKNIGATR
Proteinase-activated receptor 1 (Homo sapiens), sequence (P25116 whole entry): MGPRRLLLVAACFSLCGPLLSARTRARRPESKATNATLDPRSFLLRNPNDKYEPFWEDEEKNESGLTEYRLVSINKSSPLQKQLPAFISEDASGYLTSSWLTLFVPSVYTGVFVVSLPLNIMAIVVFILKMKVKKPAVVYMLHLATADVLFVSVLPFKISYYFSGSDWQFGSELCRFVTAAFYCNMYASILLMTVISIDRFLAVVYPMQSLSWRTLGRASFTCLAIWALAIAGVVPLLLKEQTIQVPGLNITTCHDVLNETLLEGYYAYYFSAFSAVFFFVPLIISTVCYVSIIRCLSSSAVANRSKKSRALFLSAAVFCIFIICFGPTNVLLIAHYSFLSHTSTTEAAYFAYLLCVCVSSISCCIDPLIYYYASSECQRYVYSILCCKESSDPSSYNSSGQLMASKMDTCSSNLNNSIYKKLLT
Macrophage metalloelastase (Homo sapiens), sequence (P39900 106-470 limits assumed): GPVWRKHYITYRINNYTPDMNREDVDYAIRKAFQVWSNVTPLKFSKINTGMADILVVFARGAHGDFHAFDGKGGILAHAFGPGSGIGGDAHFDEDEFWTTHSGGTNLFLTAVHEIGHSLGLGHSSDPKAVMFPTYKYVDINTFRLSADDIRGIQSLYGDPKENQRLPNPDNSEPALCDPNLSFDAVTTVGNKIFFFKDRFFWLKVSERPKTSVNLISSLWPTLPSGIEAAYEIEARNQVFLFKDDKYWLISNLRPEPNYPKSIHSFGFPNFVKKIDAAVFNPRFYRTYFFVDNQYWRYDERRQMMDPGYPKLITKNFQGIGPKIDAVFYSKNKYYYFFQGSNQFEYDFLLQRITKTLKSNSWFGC
Caspase-6 (Homo sapiens), sequence (P55212 24-179 limits assumed): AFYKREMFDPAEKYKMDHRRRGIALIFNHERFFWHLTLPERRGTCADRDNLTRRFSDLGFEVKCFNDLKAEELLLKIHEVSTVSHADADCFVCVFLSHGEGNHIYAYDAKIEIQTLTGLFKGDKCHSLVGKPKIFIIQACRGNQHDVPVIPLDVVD
Caspase-6 (Homo sapiens), sequence (P55212 194-293 limits assumed): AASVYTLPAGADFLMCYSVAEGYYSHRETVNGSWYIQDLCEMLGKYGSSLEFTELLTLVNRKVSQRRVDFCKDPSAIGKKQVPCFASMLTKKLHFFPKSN
Sodium-dependent serotonin transporter (Homo sapiens), sequence (P31645 whole entry, looked up): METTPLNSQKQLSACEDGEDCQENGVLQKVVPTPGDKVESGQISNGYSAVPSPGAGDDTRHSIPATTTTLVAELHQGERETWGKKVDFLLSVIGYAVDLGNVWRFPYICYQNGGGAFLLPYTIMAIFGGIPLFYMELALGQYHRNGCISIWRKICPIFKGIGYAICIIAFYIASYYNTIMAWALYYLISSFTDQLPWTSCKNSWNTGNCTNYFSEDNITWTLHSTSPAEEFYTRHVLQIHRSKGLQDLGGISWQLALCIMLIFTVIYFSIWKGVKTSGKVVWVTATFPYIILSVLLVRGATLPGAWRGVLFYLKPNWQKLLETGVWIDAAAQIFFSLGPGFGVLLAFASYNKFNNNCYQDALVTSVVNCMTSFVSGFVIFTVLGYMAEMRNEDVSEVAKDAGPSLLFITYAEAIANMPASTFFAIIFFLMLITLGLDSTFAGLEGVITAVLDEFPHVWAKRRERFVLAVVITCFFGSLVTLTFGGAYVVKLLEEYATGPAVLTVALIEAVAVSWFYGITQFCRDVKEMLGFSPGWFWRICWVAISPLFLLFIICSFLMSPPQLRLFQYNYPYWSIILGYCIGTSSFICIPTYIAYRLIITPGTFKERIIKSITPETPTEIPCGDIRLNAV
5-hydroxytryptamine receptor 5A (Homo sapiens), sequence (P47898 whole entry): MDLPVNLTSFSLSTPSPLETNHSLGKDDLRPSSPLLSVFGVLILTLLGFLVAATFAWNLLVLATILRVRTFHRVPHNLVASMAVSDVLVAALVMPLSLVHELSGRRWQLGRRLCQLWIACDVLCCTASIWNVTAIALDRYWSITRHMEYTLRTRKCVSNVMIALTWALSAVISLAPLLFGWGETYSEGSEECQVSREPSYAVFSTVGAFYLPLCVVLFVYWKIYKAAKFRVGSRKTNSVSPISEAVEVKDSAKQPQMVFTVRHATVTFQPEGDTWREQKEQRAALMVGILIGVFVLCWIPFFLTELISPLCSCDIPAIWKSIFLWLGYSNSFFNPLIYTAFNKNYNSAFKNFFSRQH
Cannabinoid receptor 2 (Homo sapiens), sequence (P34972 whole entry): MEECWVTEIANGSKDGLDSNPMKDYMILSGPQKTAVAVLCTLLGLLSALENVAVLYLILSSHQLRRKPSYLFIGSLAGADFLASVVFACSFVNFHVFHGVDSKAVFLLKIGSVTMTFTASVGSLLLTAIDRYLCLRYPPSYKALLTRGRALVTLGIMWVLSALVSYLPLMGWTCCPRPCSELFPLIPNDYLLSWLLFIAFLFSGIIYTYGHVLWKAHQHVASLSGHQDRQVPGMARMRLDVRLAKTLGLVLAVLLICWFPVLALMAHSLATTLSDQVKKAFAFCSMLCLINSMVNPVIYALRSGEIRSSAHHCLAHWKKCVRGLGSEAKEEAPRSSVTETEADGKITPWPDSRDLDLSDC

Ki [1]: 1.13 µM
Ki ([2]; read-out: Ki): 4.95 µM
Ki ([2]; read-out: pKi (converted)): 4.79 µM
inhibition [32]: 0.22%
inhibition [33]: 1.02%
inhibition [34]: 0.31%
inhibition [35]: 5.71%
inhibition [36]: 0.91%
inhibition [37]: 11.1%
inhibition [38]: 9.83%
inhibition [39]: 3.32%
inhibition [40]: 0.23%
inhibition [41]: 19.6%
inhibition [42]: 10.4%
inhibition [43]: 10.5%
inhibition [44]: 12%
inhibition [45]: -9.5%
residual activity [46]: -1%
Compound: CC[C@H](CC(=O)O)n1c(=O)c2ncccc2n(Cc2cn(C)c3cc(C)cc(C)c23)c1=O [BI-1942]
residual activity [3]: 87%
residual activity [4]: 127%
residual activity [5]: 103%
residual activity [6]: 115%
activity at 10 µM [7]: 108% (not active)
residual activity [8]: 156%
residual activity [9]: 99%
residual activity [10]: 98%
residual activity [11]: -2%
residual activity [12]: 109%
residual activity [13]: 98%
residual activity [14]: 96%
residual activity [15]: 108%
residual activity [16]: 106%
residual activity [17]: 104%
residual activity [18]: 103%
residual activity [19]: 104%
residual activity [20]: 104%
residual activity [21]: 109%
residual activity [22]: 103%
residual activity [23]: 90%
residual activity [24]: 97%
residual activity [25]: 134%
residual activity [26]: 102%
residual activity [27]: 120%
residual activity [28]: 94%
residual activity [29]: 86%
residual activity [30]: 102%
residual activity [31]: 101%
